Measurements published in patent US10525144B2, “Selective targeting of an anti-inflammatory receptor in human mitochondria and preservation of mitochondrial functions” (THE JOHNS HOPKINS UNIVERSITY, priority 2014, dated 2020).
Ends that are not written are not given here. * marks the point of attachment. 5FAM = O=C1OC2(c3ccc(O)cc3Oc3cc(O)ccc32)c2ccc(C(=O)*)cc21

Legend:
mitochondrial function = assay: Effect of Losartan on mitochondrial function
Excerpt: (§1) The inventors recently discovered functional mitochondrial Angiotensin receptors (mtAT1R and mtAT2R) that shift to an increased mtAT1R/mtAT2R ratio with aging. One of the protective benefits of Angiotensin (Ang) receptor type 1 (AT1R) blockers, such as Losartan (LOS), arises from its systemic effects on blood pressure and remodelling. […] Therefore, angiotensin receptor blockers such as Losartan have utility beyond hypertension treatment; angiotensin receptor blockers can be used in the treatment of conditions relevant to older adults.

skeletal muscle = assay: Skeletal muscle healing and disuse atrophy in older mice; assay type: in vivo; conditions: high doses
Excerpt: as §1

mitochondria = assay: Confocal fluorescence microscopy of cellular localization of the conjugate in rat cells (FIG. 3); assay type: cell-based
Description: FIG. 3 contains confocal fluorescence microscopy images of rat liver cells incubated with MTS1-Ls-5-FAM for 24 hrs.
The MTS1-Ls-5-FAM conjugate was transfected into rat cells and incubated for 24 hours before confocal fluorescence microscopy was performed to ascertain cellular localization. Cells were co-stained with Mitotracker-Red and Hoescht 33342 for the mitochondria and nuclei, respectively.

[1] = test system: mitochondria of cardiac cells; assay: Co-localization with mitochondria of cardiac cells (FIG. 7); assay type: cell-based
[2] = test system: mitochondrial membrane potential; assay: Quantification of mitochondrial membrane potential based on TMRE localization in cardiac cells (FIG. 8); assay type: cell-based; conditions: treated vs control, FIG. 8 panels E and F
Excerpt: FIG. 8 consists of panels A-J. Panels A and B are images showing quantification of mitochondrial membrane potential based on TMRE localization in control (panel A) and MTS1-Ls-5-FAM-treated (panel B) cardiac cells. TMRE localizes in the mitochondria, and based on the intensity of the TMRE dye, the mitochondrial membrane potential can be calculated (panel C).

CCCCc1nc(Cl)c(CO)n1Cc1ccc(-c2ccccc2-c2nn[nH]n2)cc1 [LOS, Losartan]
mitochondrial function (mitochondrial function): improved | disuse atrophy (skeletal muscle): prevent disuse atrophy | skeletal muscle healing (skeletal muscle): accelerate skeletal muscle healing

MTS1-Ls-5-FAM (MLRAALSTARRGPRLSRLLCK(5FAM); not fully specified (C-terminus); printed as MLRAALSTARRGPRLSRLLCK(Mtt); also: losartan conjugated, site not given here)
localization of the conjugate with the mitochondria (mitochondria; rat cells, incubated 24 hours, co-stained with Mitotracker-Red and Hoescht 33342): greater than 80% | localization in merged confocal image (mitochondria; rat liver cells incubated 24 hrs, FIG. 3 panel (d)): localization of MTS1-Ls-5-FAM within the mitochondria | co-localization with mitochondria (images) ([1]; FIG. 7 panels A and B): positive co-localization | co-localization with mitochondria by Pearson coefficient ([1]; relative to the scrambled MTS1-Ls-5-FAM, FIG. 7 panel C): significantly more co-localized | co-localization with mitochondria by Mander's coefficient ([1]; relative to the scrambled MTS1-Ls-5-FAM, FIG. 7 panel D): significantly more co-localized | maximum TMRE intensity per pixel [2]: no significant difference
